Reference: the NIST ThermoML archive (doi:10.1021/je800070y)
Numbers after ± are expanded uncertainties.

Conditions: Liquid, Rate of evaporation

vapor or sublimation pressure (523.15 K) [kPa] | vapor or sublimation pressure (548.15 K) [kPa] | vapor or sublimation pressure (573.15 K) [kPa] | vapor or sublimation pressure (598.15 K) [kPa] | vapor or sublimation pressure (623.15 K) [kPa] | vapor or sublimation pressure (463.15 K) [kPa] | vapor or sublimation pressure (483.15 K) [kPa] | vapor or sublimation pressure (503.15 K) [kPa] | vapor or sublimation pressure (543.15 K) [kPa] | Compound
1.31 ± 0.1 | 4.49 ± 0.35 | 12.3 ± 1 | 30 ± 2.3 | 65 ± 5 | – | – | – | – | OC[C@@H](O)[C@@H](O)[C@H](O)[C@@H](O)CO [D-sorbitol]
34.5 ± 2.7 | – | – | – | – | 3.85 ± 0.3 | 8.64 ± 0.67 | 17.9 ± 1.4 | 62.6 ± 4.8 | OCC(O)CO [glycerol]
